Results reported in patent publication EP2311818B1, “Combination of a 5-phenylthiazole compound as PI3 kinase inhibitor with an antiinflammatory, bronchodilatory or antihistamine drug” (Novartis AG, priority 2003, dated 2003).

biological target: T1, recombinant GST-p110y (Homo sapiens, UniProt P48736); test: in vitro PI3Kγ kinase assay (Scintillation Proximity Assay, transfer of terminal phosphate of ATP to phosphatidylinositol); assay type: biochemical; settings: 12.5 µM ATP, 15 µg/ml phosphatidylinositol, room temperature, 60 minutes
T1 construct: Residues 38-1102 of human P13Ky are subcloned into the BamH1 and EcoR1 sites; made in house; host or cells: Sf9 (Spodoptera frugiperda) insect cells, baculovirus
Experimental: To express the recombinant protein, Sf9 (Spodoptera frugiperda 9) insect cells are routinely maintained at densities between 3 X 10^5 and 3 X 10^6 cells/ml in serum containing TNMFH medium (Sigma). Sf9 cells, at a density of 2 X 10^6 are infected with human GST-P13KγΔ34 baculovirus at a multiplicity of infection (m.o.i.) of 1 for 72 hours. The infected cells are harvested by centrifugation at 1400 g for 4 minutes at 4° C and the cell pellets are frozen at -80° C. […] The unbound flow through sample is collected by centrifugation at 1000g for 5 minutes at 4° C using a DENLEY™ centrifuge. The 1 ml GST resin containing bound material is transferred to a 15 ml FALCON™ centrifuge tube for subsequent washing and elution steps. Firstly a series of 3 cycles of washings (mixing by gentle inversion) is performed with 15 ml ice cold wash Buffer A (50 mM Tris-HCl pH 7.5, 1 % Triton X-100, 2 mM DTT) interspersed with centrifugation at 1000g for 5 minutes at 4° C. A final single wash step is performed with 15 ml ice cold wash Buffer B (50mM Tris-HCl pH 7.5, 2 mM DTT) and then centrifuged at 1000g for 5 minutes at 4° C. The washed GST resin is finally eluted with 4 cycles of 1 ml ice cold elution buffer (50 mM Tris-HCl pH 7.5, 10 mM reduced glutathione, 2 mM DTT, 150 mM NaCl, 1 mM NaF, 50% ethylene glycol and protease inhibitors) interspersed with centrifugation at 1000g for 5 minutes at 4° C.. Samples are aliquoted and stored at -20° C.
An in vitro kinase assay was established that measures the transfer of the terminal phosphate of adenosine triphosphate to phosphatidylinositol. The kinase reaction is performed in a white 96 well microtitre plate as a Scintillation Proximity Assay. […] The reaction is started by the addition of 20 µl of enzyme mix (40 mM Tris, 200 mM NaCl, 2 mM EGTA containing recombinant GST-p110y).

T1 sequence (P48736 38-1102): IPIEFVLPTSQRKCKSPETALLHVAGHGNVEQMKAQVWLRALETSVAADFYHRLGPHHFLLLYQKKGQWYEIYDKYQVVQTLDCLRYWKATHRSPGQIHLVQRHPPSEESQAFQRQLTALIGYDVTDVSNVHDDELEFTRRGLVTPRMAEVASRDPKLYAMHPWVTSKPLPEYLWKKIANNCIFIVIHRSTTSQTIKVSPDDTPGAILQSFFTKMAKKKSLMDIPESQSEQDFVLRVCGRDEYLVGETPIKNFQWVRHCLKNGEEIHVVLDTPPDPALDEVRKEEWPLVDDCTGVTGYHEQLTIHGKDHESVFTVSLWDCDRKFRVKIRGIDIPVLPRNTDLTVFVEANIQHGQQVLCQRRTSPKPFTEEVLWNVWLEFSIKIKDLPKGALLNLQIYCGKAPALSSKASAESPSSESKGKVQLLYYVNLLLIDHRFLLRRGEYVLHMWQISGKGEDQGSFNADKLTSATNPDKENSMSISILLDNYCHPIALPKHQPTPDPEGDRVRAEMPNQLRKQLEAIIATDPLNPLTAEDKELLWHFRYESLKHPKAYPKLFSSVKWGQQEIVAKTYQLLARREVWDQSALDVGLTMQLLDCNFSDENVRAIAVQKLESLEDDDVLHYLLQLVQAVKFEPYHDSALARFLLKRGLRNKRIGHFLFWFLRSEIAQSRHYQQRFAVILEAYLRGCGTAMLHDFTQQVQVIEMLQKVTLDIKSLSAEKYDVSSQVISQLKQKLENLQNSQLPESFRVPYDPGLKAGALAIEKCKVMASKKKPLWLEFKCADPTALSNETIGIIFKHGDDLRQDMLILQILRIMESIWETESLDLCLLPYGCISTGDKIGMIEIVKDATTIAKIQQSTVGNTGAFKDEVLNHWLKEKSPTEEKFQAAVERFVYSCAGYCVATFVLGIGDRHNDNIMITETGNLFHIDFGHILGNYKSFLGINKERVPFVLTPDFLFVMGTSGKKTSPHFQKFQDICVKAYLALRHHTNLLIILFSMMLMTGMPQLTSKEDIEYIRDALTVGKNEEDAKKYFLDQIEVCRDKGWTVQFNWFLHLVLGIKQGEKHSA

Structure (SMILES) | IC50 [nM]
CCOC(=O)CCNC(=O)Nc1nc(C)c(-c2ccc(S(C)(=O)=O)c(F)c2)s1 [Example 165, 3-{3-[5-(3-Fluoro-4-methanesulfonyl-phenyl)-4-met4l-thiazol-2-yl]-ureido}-propionic acid ethyl ester] | 19
CCc1cnc(CCNC(=O)Nc2nc(C)c(-c3ccc(S(C)(=O)=O)c(F)c3)s2)o1 [Example 178] | 40

Stronger by IC50, values ahead:

IC50 [nM] | Structure (SMILES)
9 | CC(=O)Nc1nc(C)c(-c2cc(Br)c(S(N)(=O)=O)c(Br)c2)s1 [Example 8, N-[5-(3.5-Dibromo-4-sulfamoyl-phenyl)-4-methyl-thiazol-2-yl]-acetamide]
18 | CC(=O)Nc1nc(C)c(-c2ccc(Cl)c(S(C)(=O)=O)c2)s1 [Example 48, N-[5-(4-Chloro-3-methanesulfonyl-phenyl)-4-methyl-thiazol-2-yl]-acetamide]
13 | CC(=O)Nc1nc(C)c(-c2ccc(S(C)(=O)=O)c(-n3ccnc3)c2)s1 [Example 80, N-[5-(3-Imidazol-1-yl-4-methanesulfonyl-phenyl)-4-methyl-thiazol-2-yl]-acetamide]
5 | Cc1nc(NC(N)=O)sc1-c1ccc(Cl)c(S(C)(=O)=O)c1 [Example 138, [5-(4-chloro-3-methanesulfonyl-phenyl)-4-methyl-thiazol-2-yl]-urea]
